Laboratory results: US11773078B2, “Furin inhibitors” (Glaxosmithkline Intellectual Property Development Limited, priority 2018, dated 2023)
Where a name gives a salt, the structure may show the parent alone.

What was measured:
[1] = biological target: T1, furin (endogenous protease) in U20S cells (Homo sapiens, UniProt P09958); assay: Furin cell-based assay (image-based, Golgi-targeted GFP with BMP10 furin/PCSK cleavage site); settings: 24-hour incubation, read-out: furin golgi cell pXC50 (converted);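 note: Read-out is mean GFP fluorescence of Golgi puncta per cell by high-content imaging, retained when furin inhibited, over an eleven-point 0.00017–10 µM series, four-parameter fit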
T1 construct: the endogenous protease cleaves GFP; endogenous in cells; host or cells: U2OS cells transduced with a BacMam reporter

[2] = biological target: T2, Furin (108-574-Tev-Flag-His) enzyme (Homo sapiens, UniProt P09958); assay: Furin enzyme assay; format: biochemical; settings: for IC50: read-out: furin enzyme pIC50 (converted)
T2 construct: Furin (108-574-Tev-Flag-His) enzyme was expressed and purified from CHO cells; TEV cleavage site (C); FLAG (C); His (C); made in house; host or cells: CHO cells
Summary of the method: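 CHO-expressed, purified furin construct at 40 pM in 100 mM HEPES pH7.5, 1 mM CaCl2, 0.005% Triton X-100. Eleven-point 1:3 series, 0.00017–10 μM final, incubated 2 h at room temperature and read on Envision. pXC50 from four-parameter fit.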

T2 sequence (P09958 108-574): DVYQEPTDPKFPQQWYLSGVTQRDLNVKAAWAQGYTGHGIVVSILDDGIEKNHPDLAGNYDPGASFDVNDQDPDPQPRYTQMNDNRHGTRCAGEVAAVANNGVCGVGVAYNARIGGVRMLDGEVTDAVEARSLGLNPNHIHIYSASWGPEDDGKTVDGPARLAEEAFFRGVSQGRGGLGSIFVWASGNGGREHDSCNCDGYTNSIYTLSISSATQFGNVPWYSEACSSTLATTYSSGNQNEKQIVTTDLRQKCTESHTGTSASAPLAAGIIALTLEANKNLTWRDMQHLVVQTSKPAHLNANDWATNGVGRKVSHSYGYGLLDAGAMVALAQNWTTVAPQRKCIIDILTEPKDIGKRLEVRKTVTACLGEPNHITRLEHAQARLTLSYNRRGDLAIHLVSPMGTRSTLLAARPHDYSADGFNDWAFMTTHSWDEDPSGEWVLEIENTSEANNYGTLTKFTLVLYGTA
T1 sequence (P09958 108-794): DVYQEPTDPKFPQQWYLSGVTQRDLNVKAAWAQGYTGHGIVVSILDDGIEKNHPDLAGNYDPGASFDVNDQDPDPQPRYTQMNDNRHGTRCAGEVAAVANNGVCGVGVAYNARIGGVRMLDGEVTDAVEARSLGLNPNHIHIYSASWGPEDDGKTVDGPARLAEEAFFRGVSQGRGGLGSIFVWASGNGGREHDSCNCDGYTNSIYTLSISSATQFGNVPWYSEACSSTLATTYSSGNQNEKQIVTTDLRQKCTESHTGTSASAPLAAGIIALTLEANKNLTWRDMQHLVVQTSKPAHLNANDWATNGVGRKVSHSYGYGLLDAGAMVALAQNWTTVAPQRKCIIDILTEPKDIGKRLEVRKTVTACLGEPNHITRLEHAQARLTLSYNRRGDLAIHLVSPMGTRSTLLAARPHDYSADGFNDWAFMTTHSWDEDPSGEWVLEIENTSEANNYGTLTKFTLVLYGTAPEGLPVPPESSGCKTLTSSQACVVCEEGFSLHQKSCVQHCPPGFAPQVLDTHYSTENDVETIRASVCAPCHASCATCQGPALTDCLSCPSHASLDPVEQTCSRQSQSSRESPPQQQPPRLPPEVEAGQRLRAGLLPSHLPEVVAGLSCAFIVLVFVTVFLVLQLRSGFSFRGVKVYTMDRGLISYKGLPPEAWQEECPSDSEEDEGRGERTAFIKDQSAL

| SMILES | EC50 [1] [nM] | furin enzyme pIC50 [2] | IC50 [2] [nM] |
| --- | --- | --- | --- |
| CNC(=O)NCC1CCN(Cc2cc(Oc3cnc(N4CCN(CCC(N)=O)CC4)nc3)nc(-c3cc(Cl)cc(Cl)c3)c2)CC1 [Example 261, 3-(4-(5-((6-(3,5-dichlorophenyl)-4-((4-((3-methylureido)methyl)piperidin-1-yl)methyl)pyridin-2-yl)oxy)pyrimidin-2-yl)piperazin-1-yl)propanamide] | 10 | 9.2 | – |
| CC(=O)NCC1CCN(Cc2cc(Oc3cnc(N4CCN(CCC(N)=O)CC4)cn3)nc(-c3cc(Cl)cc(Cl)c3)c2)CC1 [Example 391, 3-(4-(5-((4-((4-(acetamidomethyl)piperidin-1-yl)methyl)-6-(3,5-dichlorophenyl)pyridin-2-yl)oxy)pyrazin-2-yl)piperazin-1-yl)propanamide] | 6.31 | 8.7 | – |
| CCOC(=O)NCC1CCN(Cc2cc(Oc3cnc(N4CCN(CCC(=O)O)CC4)nc3)nc(-c3cc(Cl)cc(Cl)c3)c2)CC1 [Example 267, 3-(4-(5-((6-(3,5-dichlorophenyl)-4-((4-(((ethoxycarbonyl)amino)methyl)piperidin-1-yl)methyl)pyridin-2-yl)oxy)pyrimidin-2-yl)piperazin-1-yl)propanoic acid] | 50.1 | 9.9 | – |
| COC(=O)NCC1CCN(Cc2cc(Oc3cnc(N4CCN(CCC(=O)O)[C@@H](C)C4)nc3)nc(-c3cc(Cl)cc(Cl)c3)c2)CC1 [Example 294, (S)-3-(4-(5-((6-(3,5-dichlorophenyl)-4-((4-(((methoxycarbonyl)amino)methyl)piperidin-1-yl)methyl)pyridin-2-yl)oxy)pyrimidin-2-yl)-2-methylpiperazin-1-yl)propanoic acid] | 20 | 10.1 | – |
| CNC(=O)NCC1CCN(Cc2cc(Oc3ccc(N4CCN(CCOC)CC4)nc3)nc(-c3cc(Cl)cc(Cl)c3)c2)CC1 [Example 254, 1-((1-((2-(3,5-dichlorophenyl)-6-((6-(4-(2-methoxyethyl)piperazin-1-yl)pyridin-3-yl)oxy)pyridin-4-yl)methyl)piperidin-4-yl)methyl)-3-methylurea] | 3.16 | 8.7 | – |
| CNC(=O)NCC1CCN(Cc2cc(Oc3cnc(N4CCN(C)CC4)nc3)nc(-c3cc(Cl)cc(Cl)c3)c2)CC1 [Example 70, 1-((1-((2-(3,5-dichlorophenyl)-6-((2-(4-methylpiperazin-1-yl)pyrimidin-5-yl)oxy)pyridin-4-yl)methyl)piperidin-4-yl)methyl)-3-methylurea] | 3.98 | – | 0.0316 |
| CC(=O)NCC1CCN(Cc2cc(Oc3ccc(N4CCN(CC(C)(C)C(=O)O)CC4)nc3)nc(-c3cc(Cl)cc(Cl)c3)c2)CC1 [Example 189, 3-(4-(5-((4-((4-(acetamidomethyl)piperidin-1-yl)methyl)-6-(3,5-dichlorophenyl)pyridin-2-yl)oxy)pyridin-2-yl)piperazin-1-yl)-2,2-dimethylpropanoic acid] | 31.6 | 8.7 | – |
| CN1CCN(c2ncc(Oc3cc(CN4CCC(CC(=O)O)CC4)cc(-c4cc(Cl)cc(Cl)c4)n3)cn2)CC(F)C1 (stereo not shown) [Example 147, 2-(1-((2-(3,5-dichlorophenyl)-6-((2-(6-fluoro-4-methyl-1,4-diazepan-1-yl)pyrimidin-5-yl)oxy)pyridin-4-yl)methyl)piperidin-4-yl)acetic acid] | 31.6 | – | 0.631 |
| CN1CCN(c2ncc(Oc3cc(CN4CCC(CB(O)O)CC4)cc(-c4cc(Cl)cc(Cl)c4)n3)cn2)CC1 [Example 318, ((1-((2-(3,5-Dichlorophenyl)-6-((2-(4-methylpiperazin-1-yl)pyrimidin-5-yl)oxy)pyridin-4-yl)methyl)piperidin-4-yl)methyl)boronic acid, 4 hydrochloride] | 10 | 8.9 | – |
| CNC(=O)NCC1CCN(Cc2cc(Oc3cnc(N4CCN(CCC(=O)O)CC4)nc3)nc(-c3cc(Cl)cc(Cl)c3)c2)CC1 [Example 256, 3-(4-(5-((6-(3,5-dichlorophenyl)-4-((4-((3-methylureido)methyl)piperidin-1-yl)methyl)pyridin-2-yl)oxy)pyrimidin-2-yl)piperazin-1-yl)propanoic acid] | 15.8 | 9.5 | – |
| CCC(CN1CCN(c2ccc(Oc3cc(CN4CCC(CNC(C)=O)CC4)cc(-c4cc(Cl)cc(Cl)c4)n3)cn2)CC1)C(=O)O (stereo not shown) [Example 288, 2-((4-(5-((4-((4-(acetamidomethyl)piperidin-1-yl)methyl)-6-(3,5-dichlorophenyl)pyridin-2-yl)oxy)pyridin-2-yl)piperazin-1-yl)methyl)butanoic acid] | 50.1 | 9.4 | – |
| CN1CCCN(c2ncc(Oc3cc(CN4CCC(CB(O)O)CC4)cc(-c4cc(Cl)cc(Cl)c4)n3)cn2)CC1 [Example 322, ((1-((2-(3,5-dichlorophenyl)-6-((2-(4-methyl-1,4-diazepan-1-yl)pyrimidin-5-yl)oxy)pyridin-4-yl)methyl)piperidin-4-yl)methyl)boronic acid] | 6.31 | 8.9 | – |
| CC(=O)NCC1CCN(Cc2cc(Oc3cnc(N4CCN(CCC(=O)O)CC4)cn3)nc(-c3cc(Cl)cc(Cl)c3)c2)CC1 [Example 111, 3-(4-(5-((4-((4-(Acetamidomethyl)piperidin-1-yl)methyl)-6-(3,5-dichlorophenyl)pyridin-2-yl)oxy)pyrazin-2-yl)piperazin-1-yl)propanoic acid] | 158 | 9.7 | – |
| COC(=O)NCC1(O)CCN(Cc2cc(Oc3ccc(N4CCNCC4)nc3)nc(-c3cc(Cl)cc(Cl)c3)c2)CC1 [Example 6, Methyl ((1-((2-(3,5-dichlorophenyl)-6-((6-(piperazin-1-yl)pyridin-3-yl)oxy)pyridin-4-yl)methyl)-4-hydroxypiperidin-4-yl)methyl)carbamate, 4 hydrochloride] | 7.94 | 8.5 | – |
| CNC(=O)NCC1CCN(Cc2cc(Oc3cnc(N4CCN(CC(C)C(N)=O)CC4)nc3)nc(-c3cc(Cl)cc(Cl)c3)c2)CC1 (stereo not shown) [Example 291, 3-(4-(5-((6-(3,5-dichlorophenyl)-4-((4-((3-methylureido)methyl)piperidin-1-yl)methyl)pyridin-2-yl)oxy)pyrimidin-2-yl)piperazin-1-yl)-2-methylpropanamide] | 7.94 | 10.7 | – |
| CNCc1cc(Oc2ccc(NCCCN)nc2)cc(-c2cc(Cl)cc(Cl)c2)c1 [Example 101, N^1-(5-((3′,5′-Dichloro-5-((methylamino)methyl)-[1,1′-biphenyl]-3-yl)oxy)pyridin-2-yl)propane-1,3-diamine] | 3160 | 8.6 | – |
| COC(=O)NCC1CCN(Cc2cc(Oc3cnc(N4CCN(C)CC4)nc3)nc(-c3cc(Cl)cc(Cl)c3)c2)CC1 [Example 63, Methyl ((1-1(2-(3,5-dichlorophenyl)-6-((2-(4-methylpiperazin-1-yl)pyrimidin-5-yl)oxy)pyridin-4-yl)methyl)piperidin-4-yl)methyl)carbamate, 4 hydrochloride] | 7.94 | 10.8 | – |
| CC(=O)NCC1CCN(Cc2cc(Oc3ccc(N4CCN(CCCC(=O)O)CC4)nc3)nc(-c3cc(Cl)cc(Cl)c3)c2)CC1 [Example 249, 4-(4-(5-((4-((4-(acetamidomethyl)piperidin-1-yl)methyl)-6-(3,5-dichlorophenyl)pyridin-2-yl)oxy)pyridin-2-yl)piperazin-1-yl)butanoic acid] | 12.6 | 9.1 | – |
| CNC(=O)NCC1CCN(Cc2cc(Oc3ccc(N4CCN(CCCS(C)(=O)=O)CC4)nc3)nc(-c3cc(Cl)cc(Cl)c3)c2)CC1 [Example 255, 1-((1-((2-(3,5-dichlorophenyl)-6-((6-(4-(3-(methylsulfonyl)propyl)piperazin-1-yl)pyridin-3-yl)oxy)pyridin-4-yl)methyl)piperidin-4-yl)methyl)-3-methylurea] | 6.31 | 9.5 | – |
| NC1(CO)CCN(c2ncc(Oc3cc(CN4CCC(CC(=O)O)CC4)cc(-c4cc(Cl)cc(Cl)c4)n3)cn2)CC1 [Example 165, 2-(1-((2-((2-(4-amino-4-(hydroxymethyl)piperidin-1-yl)pyrimidin-5-yl)oxy)-6-(3,5-dichlorophenyl)pyridin-4-yl)methyl)piperidin-4-yl)acetic acid] | 31.6 | 8.4 | – |
| CN1CCN(c2ncc(Oc3nc(-c4cc(Cl)cc(Cl)c4)cc(CN4CCC(CC(=O)O)CC4)c3F)cn2)CC1 [Example 379, 2-(1-((6-(3,5-dichlorophenyl)-3-fluoro-2-((2-(4-methylpiperazin-1-yl)pyrimidin-5-yl)oxy)pyridin-4-yl)methyl)piperidin-4-yl)acetic acid] | 20 | 8.7 | – |
| CC(C)N1CCN(c2ncc(Oc3cc(CN4CCC(CC(=O)O)CC4)cc(-c4cc(Cl)cc(Cl)c4)n3)cn2)CC1 [Example 235, 2-(1-((2-(3,5-Dichlorophenyl)-6-((2-(4-isopropylpiperazin-1-yl)pyrimidin-5-yl)oxy)pyridin-4-yl)methyl)piperidin-4-yl)acetic acid] | 15.8 | 9.2 | – |
| CC(=O)NCC1CCN(Cc2cc(Oc3ccc(N4CCN(CCC(=O)O)C(C)(C)C4)nc3)nc(-c3cc(Cl)cc(Cl)c3)c2)CC1 [Example 191, 3-(4-(5-((4-((4-(acetamidomethyl)piperidin-1-yl)methyl)-6-(3,5-dichlorophenyl)pyridin-2-yl)oxy)pyridin-2-yl)-2,2-dimethylpiperazin-1-yl)propanoic acid] | 39.8 | 9.8 | – |
